Data published in publication PMC12847094, “Casticin inhibits AKR1C3 and enhances abiraterone efficacy in castration-resistant prostate cancer” (Journal of Natural Medicines, 2025).

Target: T1, aldo-keto reductase 1C3 (AKR1C3) (Homo sapiens, UniProt P42330)
T1 construct: recombinant hAKR1C3 expressed in E. coli Rosetta (DE3), pET21b
Experiment: NADPH oxidation at […] nm with […],10-phenanthrenequinone, recombinant enzyme; also coumberone reduction in […]1 cells
Format: biochemical

T1 sequence (P42330 whole entry): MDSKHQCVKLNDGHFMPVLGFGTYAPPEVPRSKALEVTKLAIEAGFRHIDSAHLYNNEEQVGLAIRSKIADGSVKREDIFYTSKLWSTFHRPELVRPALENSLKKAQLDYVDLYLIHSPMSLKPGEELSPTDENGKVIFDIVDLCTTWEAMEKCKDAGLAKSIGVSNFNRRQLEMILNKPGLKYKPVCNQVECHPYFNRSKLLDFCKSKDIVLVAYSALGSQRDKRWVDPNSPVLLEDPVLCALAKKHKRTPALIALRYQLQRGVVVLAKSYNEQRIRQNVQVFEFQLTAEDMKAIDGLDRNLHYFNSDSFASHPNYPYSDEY

## COc1ccc(-c2oc3cc(OC)c(OC)c(O)c3c(=O)c2OC)cc1O [CAS, casticin]
  IC50: 5.99 µM
